Reference: ChEMBL document CHEMBL4387706, “Discovery of Novel Spiroindoline Derivatives as Selective Tankyrase Inhibitors” (J Med Chem, 2019)

Experiments:
[1] = target: Alpha-2A adrenergic receptor (Homo sapiens) (UniProt P08913); assay: Displacement of [3H]rauwolscine from full-length recombinant human alpha2A receptor expressed in CHOK1 cells at 10 uM measured after 60 mins by scintillation counting method relative to control; assay type: cell-based
[2] = target: Sodium-dependent dopamine transporter (Homo sapiens) (UniProt Q01959); assay: Displacement of [125I]RTI-55 from full-length recombinant human DAT receptor expressed in CHOS cells at 10 uM measured after 3 hrs by scintillation counting method relative to control; assay type: cell-based
[3] = target: Kappa-type opioid receptor (Homo sapiens) (UniProt P41145); assay: Displacement of [3H]diprenorphine from full-length recombinant human KOR expressed in HEK293 cells at 10 uM measured after 60 mins by scintillation counting method relative to control; assay type: cell-based
[4] = Toxicity in mouse xenografted with human COLO320DM cells assessed as body weight loss at 150 mg/kg, ip administered twice daily for 11 days; assay type: organism-based; conditions: in vivo, 264 h
Rattus norvegicus [5] = species: Rattus norvegicus; assay: Displacement of [125I]a-dendrotoxin from voltage-gated potassium channel in Wistar rat cerebral cortex at 10 uM measured after 60 mins by scintillation counting method relative to control
[6] = target: Acetylcholinesterase (Homo sapiens) (UniProt P22303); assay: Inhibition of human recombinant full-length ACES expressed in HEK293 cells at 10 uM using acetylthiocholine iodide as substrate preincubated for 15 mins followed by substrate addition and measured after 20 mins by DTNB reagent based spectrophotometric method relative to control
Rattus norvegicus [7] = species: Rattus norvegicus; assay: Displacement of [3H]batrachotoxinin from Wistar rat brain sodium channel site 2 at 10 uM after 60 mins by scintillation counting analysis relative to control
Tankyrase 1/2 = target: T1, Tankyrase 1/2 (Homo sapiens, UniProt Q9H2K2+O95271)
T1 sequence (Q9H2K2 whole entry): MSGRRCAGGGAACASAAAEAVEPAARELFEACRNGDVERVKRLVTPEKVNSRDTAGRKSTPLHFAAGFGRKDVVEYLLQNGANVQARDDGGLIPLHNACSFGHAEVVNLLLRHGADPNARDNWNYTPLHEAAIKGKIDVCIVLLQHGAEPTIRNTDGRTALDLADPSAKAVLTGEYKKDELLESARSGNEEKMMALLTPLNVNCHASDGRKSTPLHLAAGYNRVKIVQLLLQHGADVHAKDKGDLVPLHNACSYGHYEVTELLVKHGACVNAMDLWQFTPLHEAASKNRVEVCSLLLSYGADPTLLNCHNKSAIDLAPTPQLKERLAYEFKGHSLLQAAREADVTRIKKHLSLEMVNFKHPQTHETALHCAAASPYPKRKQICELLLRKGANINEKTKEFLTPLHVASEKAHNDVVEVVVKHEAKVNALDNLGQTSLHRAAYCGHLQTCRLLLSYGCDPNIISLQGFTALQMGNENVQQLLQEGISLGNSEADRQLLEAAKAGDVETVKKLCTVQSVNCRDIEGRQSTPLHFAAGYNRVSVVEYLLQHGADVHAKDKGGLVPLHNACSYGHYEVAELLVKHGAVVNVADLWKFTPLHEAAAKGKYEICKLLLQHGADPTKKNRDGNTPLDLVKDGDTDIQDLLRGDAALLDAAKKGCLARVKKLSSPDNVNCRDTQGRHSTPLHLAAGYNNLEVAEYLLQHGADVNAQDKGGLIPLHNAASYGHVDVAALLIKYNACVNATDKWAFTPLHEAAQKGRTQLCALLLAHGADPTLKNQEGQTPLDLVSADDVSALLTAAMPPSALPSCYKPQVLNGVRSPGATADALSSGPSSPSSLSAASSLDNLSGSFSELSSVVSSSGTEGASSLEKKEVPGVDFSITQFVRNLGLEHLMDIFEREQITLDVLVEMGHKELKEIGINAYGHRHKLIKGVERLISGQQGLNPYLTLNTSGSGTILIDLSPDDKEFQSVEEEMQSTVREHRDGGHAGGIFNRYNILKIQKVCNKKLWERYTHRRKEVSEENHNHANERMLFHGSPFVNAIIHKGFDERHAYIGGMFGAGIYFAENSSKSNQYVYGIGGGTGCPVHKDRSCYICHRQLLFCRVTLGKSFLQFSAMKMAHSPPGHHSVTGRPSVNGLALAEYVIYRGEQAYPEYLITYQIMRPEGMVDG
T1 sequence (O95271 whole entry): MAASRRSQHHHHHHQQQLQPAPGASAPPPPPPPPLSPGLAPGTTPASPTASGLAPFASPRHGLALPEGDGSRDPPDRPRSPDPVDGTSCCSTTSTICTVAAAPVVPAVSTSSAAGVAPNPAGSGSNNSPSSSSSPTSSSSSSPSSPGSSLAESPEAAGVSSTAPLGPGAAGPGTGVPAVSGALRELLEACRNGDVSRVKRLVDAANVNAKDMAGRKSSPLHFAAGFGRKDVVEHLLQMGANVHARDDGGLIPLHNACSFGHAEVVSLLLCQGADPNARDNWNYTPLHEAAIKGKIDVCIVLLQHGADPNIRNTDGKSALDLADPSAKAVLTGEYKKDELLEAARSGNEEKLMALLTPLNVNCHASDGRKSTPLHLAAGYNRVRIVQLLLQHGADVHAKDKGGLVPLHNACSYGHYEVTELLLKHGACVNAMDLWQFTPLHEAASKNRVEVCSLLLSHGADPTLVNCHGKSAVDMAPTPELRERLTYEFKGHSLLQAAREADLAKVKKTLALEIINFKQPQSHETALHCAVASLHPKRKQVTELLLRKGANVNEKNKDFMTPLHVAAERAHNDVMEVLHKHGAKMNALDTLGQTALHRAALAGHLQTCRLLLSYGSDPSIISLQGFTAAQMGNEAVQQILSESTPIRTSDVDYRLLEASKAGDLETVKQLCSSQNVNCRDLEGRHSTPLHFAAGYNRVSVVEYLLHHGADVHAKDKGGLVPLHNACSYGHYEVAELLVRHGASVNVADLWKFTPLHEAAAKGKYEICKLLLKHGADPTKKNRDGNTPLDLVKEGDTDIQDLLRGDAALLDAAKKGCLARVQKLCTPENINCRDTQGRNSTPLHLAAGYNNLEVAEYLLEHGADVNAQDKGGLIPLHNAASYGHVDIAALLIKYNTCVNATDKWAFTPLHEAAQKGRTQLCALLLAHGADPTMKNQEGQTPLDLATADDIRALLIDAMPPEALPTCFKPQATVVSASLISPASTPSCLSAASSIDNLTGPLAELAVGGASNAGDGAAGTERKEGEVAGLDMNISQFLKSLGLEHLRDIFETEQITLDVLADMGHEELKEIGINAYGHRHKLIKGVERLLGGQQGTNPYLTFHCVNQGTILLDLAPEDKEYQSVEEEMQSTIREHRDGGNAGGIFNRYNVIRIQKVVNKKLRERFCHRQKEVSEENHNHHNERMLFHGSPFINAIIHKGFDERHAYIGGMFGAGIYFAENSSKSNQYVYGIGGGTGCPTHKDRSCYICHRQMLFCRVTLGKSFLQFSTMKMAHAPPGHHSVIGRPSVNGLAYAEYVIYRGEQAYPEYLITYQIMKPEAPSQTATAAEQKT
Description: Inhibition of TNKS/TNKS2 (unknown origin) expressed in human DLD1 cells assessed as reduction in Wnt-signaling measured after 24 hrs by TCF-luciferase reporter gene assay

Kappa-type opioid receptor (Homo sapiens), sequence (P41145 whole entry): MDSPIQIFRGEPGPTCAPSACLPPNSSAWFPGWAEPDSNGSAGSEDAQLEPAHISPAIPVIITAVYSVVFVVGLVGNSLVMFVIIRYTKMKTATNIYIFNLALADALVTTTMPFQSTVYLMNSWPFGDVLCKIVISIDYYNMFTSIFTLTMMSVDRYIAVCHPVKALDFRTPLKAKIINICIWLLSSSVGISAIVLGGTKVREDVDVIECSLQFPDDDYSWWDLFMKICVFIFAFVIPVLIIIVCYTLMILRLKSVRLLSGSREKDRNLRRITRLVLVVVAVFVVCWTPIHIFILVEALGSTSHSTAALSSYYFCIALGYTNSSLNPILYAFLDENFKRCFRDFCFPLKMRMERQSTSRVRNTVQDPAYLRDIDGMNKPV
Sodium-dependent dopamine transporter (Homo sapiens), sequence (Q01959 whole entry): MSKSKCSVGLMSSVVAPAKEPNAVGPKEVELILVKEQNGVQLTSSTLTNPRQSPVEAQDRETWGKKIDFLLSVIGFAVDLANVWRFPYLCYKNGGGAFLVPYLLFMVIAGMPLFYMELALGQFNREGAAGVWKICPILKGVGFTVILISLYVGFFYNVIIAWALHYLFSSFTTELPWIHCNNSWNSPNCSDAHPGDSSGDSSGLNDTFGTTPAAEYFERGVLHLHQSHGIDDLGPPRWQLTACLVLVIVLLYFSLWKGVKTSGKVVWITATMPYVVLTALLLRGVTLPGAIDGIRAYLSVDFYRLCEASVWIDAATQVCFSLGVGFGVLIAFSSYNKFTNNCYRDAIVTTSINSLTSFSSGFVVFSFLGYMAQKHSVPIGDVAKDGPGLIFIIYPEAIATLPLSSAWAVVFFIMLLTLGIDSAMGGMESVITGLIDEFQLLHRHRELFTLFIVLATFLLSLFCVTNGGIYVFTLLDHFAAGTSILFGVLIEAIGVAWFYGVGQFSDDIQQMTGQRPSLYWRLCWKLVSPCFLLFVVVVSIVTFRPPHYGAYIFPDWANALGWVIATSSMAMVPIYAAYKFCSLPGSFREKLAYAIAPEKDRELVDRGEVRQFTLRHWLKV
Acetylcholinesterase (Homo sapiens), sequence (P22303 whole entry): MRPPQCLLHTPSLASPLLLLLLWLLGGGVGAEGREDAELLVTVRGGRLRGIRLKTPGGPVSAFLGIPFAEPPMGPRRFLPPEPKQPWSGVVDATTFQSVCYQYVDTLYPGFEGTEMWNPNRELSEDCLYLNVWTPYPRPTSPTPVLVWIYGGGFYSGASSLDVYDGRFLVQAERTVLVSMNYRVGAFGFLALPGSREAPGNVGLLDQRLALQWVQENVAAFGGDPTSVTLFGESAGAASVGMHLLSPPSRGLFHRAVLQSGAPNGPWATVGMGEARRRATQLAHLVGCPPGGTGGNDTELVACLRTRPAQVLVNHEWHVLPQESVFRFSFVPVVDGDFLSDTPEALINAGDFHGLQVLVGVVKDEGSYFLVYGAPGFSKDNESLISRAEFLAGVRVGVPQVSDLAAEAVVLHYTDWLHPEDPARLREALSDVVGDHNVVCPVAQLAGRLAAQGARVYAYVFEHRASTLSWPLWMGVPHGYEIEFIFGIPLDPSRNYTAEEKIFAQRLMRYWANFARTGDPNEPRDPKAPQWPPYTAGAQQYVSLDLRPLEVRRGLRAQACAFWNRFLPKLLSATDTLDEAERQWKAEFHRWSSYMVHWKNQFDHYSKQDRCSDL
Alpha-2A adrenergic receptor (Homo sapiens), sequence (P08913 whole entry): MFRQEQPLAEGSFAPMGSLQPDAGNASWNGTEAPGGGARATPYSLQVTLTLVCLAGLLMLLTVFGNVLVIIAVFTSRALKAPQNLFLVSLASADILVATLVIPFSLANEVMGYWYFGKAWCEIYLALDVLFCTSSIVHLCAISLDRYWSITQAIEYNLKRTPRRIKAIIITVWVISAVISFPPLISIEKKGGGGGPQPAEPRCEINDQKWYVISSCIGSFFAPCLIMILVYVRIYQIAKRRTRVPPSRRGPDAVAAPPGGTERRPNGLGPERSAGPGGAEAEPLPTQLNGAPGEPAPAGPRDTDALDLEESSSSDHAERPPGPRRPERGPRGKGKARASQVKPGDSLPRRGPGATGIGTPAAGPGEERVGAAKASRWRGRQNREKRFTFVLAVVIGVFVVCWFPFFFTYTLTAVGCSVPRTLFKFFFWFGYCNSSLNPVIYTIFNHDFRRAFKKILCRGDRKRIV

| Structure (SMILES) | inhibition [1] [%] | inhibition [2] [%] | inhibition [3] [%] | Activity [4] | inhibition (Rattus norvegicus [5]) [%] | inhibition [6] [%] | inhibition (Rattus norvegicus [7]) [%] | IC50 (Tankyrase 1/2) [nM] |
| --- | --- | --- | --- | --- | --- | --- | --- | --- |
| O=c1[nH]c(N2CCC3(CC2)CN(CCO)c2cc(F)cc(F)c23)nc2c1CCCC2 | > 20 | > 20 | > 20 | Non-Toxic | > 20 | > 20 | > 20 | – |
| COc1ccccc1N1CCN(c2nc3c(c(=O)[nH]2)CCCC3)CC1 | – | – | – | – | – | – | – | 233 |
